In ChEMBL document CHEMBL4359906, “Design and synthesis of new N-terminal fatty acid modified-antimicrobial peptide analogues with potent in vitro biological activity” (Eur J Med Chem, 2019):
Converted amounts (≈) assume the structure as drawn. The source made the active and inactive calls. No cut-off for these calls is given here.

Assays:
Staphylococcus aureus [1] = experiment: Antibacterial activity against methicillin-resistant Staphylococcus aureus 936 after 18 hrs by CLSI based broth microdilution method; type: functional; settings: Staphylococcus aureus, 936, 18 h
Staphylococcus aureus [2] = experiment: Ratio of antibacterial activity against Staphylococcus aureus ATCC 25923 in presence of NaCl to antibacterial activity against Staphylococcus aureus ATCC 25923; type: functional
Staphylococcus aureus [3] = experiment: Antibiofilm activity against Staphylococcus aureus ATCC 25923 at 1 to 2 times of MIC after 24 hrs by crystal violet staining based assay; type: functional, organism-based
Escherichia coli [4] = experiment: Antibiofilm activity against Escherichia coli ATCC 25922 assessed as reduction in biofilm inhibition at MIC after 24 hrs by crystal violet staining based assay relative to control; type: functional
Escherichia coli [5] = experiment: Antibacterial activity against Escherichia coli ATCC 25922 after 18 hrs in presence of FeCl3 by CLSI based broth microdilution method (reference value: 4 microM); type: functional; settings: ATCC 25922, 18 h
Erythrocyte = experiment: Hemolytic activity in human RBC measured after 1 hr by microplate reader analysis; type: ADME, cell-based
Escherichia coli [6] = experiment: Antimicrobial activity against Escherichia coli ATCC 25922 at 1 mM preincubated for 6 hrs in presence of 2 ug/ml chymotrypsin and measured after 18 hrs by microplate reader analysis; type: functional, organism-based
Escherichia coli [7] = experiment: Induction of outer membrane permeabilization in Escherichia coli ATCC 25922 measured up to 12 mins by NPN-dye based assay; type: organism-based
Staphylococcus aureus [8] = experiment: Antibacterial activity against Staphylococcus aureus ATCC 25923 after 18 hrs in presence of FeCl3 by CLSI based broth microdilution method (reference value: 16 microM); type: functional; settings: ATCC 25923, 18 h
[9] = Hemolytic activity in human RBC at 256 uM measured after 1 hr by microplate reader analysis relative to control; type: ADME, cell-based, Erythrocyte; settings: human red blood cells (erythrocytes), read-out: Activity
Klebsiella pneumoniae = experiment: Potentiation of rifampicin-induced antibacterial activity against Klebsiella pneumoniae ATCC 700603 assessed as FICI after 18 hrs by checker board assay; type: functional
Staphylococcus aureus [10] = experiment: Antibacterial activity against Staphylococcus aureus ATCC 25923 after 18 hrs in presence of KCl by CLSI based broth microdilution method (reference value: 16 microM); type: functional; settings: ATCC 25923, 18 h
Escherichia coli [11] = experiment: Antimicrobial activity against Escherichia coli ATCC 25922 preincubated for 6 hrs in presence of 10% mouse serum and measured after 18 hrs by CLSI-based broth microdilution assay (reference value: 8 microM); type: functional
Staphylococcus aureus [12] = experiment: Antibacterial activity against Staphylococcus aureus ATCC 25923 after 18 hrs in presence of MgCl2 by CLSI based broth microdilution method (reference value: 64 microM); type: functional; settings: ATCC 25923, 18 h
[13] = Cytotoxicity against mouse RAW264.7 cells assessed as cell proliferation at 32 uM after 1 hr by MTT assay relative to control; type: cell-based; settings: read-out: Activity
Escherichia coli [14] = experiment: Antimicrobial activity against Escherichia coli ATCC 25922 preincubated for 1 hr in presence of 10% mouse serum and measured after 18 hrs by CLSI-based broth microdilution assay (reference value: 8 microM); type: functional
Escherichia coli [15] = experiment: Antibacterial activity against Escherichia coli ATCC 25922 after 18 hrs in presence of FeCl3 by CLSI based broth microdilution method (reference value: 8 microM); type: functional; settings: ATCC 25922, 18 h
Escherichia coli [16] = experiment: Antibacterial activity against Escherichia coli ATCC 25922 after 18 hrs in presence of MgCl2 by CLSI based broth microdilution method (reference value: 8 microM); type: functional; settings: ATCC 25922, 18 h
Escherichia coli [17] = experiment: Antibacterial activity against Escherichia coli ATCC 25922 after 18 hrs in presence of NaCl by CLSI based broth microdilution method (reference value: 8 microM); type: functional; settings: ATCC 25922, 18 h
Escherichia coli [18] = experiment: Antibacterial activity against Escherichia coli ATCC 25922 after 18 hrs in presence of KCl by CLSI based broth microdilution method (reference value: 8 microM); type: functional; settings: ATCC 25922, 18 h
Staphylococcus aureus [19] = experiment: Antibacterial activity against Staphylococcus aureus ATCC 25923 after 18 hrs in presence of NaCl by CLSI based broth microdilution method (reference value: 32 microM); type: functional; settings: ATCC 25923, 18 h
Escherichia coli [20] = experiment: Antibacterial activity against Escherichia coli ATCC 25922 after 18 hrs in presence of MgCl2 by CLSI based broth microdilution method (reference value: 64 microM); type: functional; settings: ATCC 25922, 18 h
[21] = Cytotoxicity against mouse RAW264.7 cells assessed as cell proliferation at 64 uM after 1 hr by MTT assay relative to control; type: cell-based; settings: read-out: Activity
Escherichia coli [22] = experiment: Antibiofilm activity against Escherichia coli ATCC 25922 assessed as reduction in biofilm inhibition at 0.5 to 1 times of MIC after 24 hrs by crystal violet staining based assay; type: functional, organism-based
Escherichia coli [23] = experiment: Antibacterial activity against Escherichia coli ATCC 25922 after 18 hrs in presence of FeCl3 by CLSI based broth microdilution method (reference value: 64 microM); type: functional; settings: ATCC 25922, 18 h
Staphylococcus aureus [24] = experiment: Antibiofilm activity against Staphylococcus aureus ATCC 25923 at 2 times of MIC after 24 hrs by crystal violet staining based assay; type: functional, organism-based

CCCCCCCC(=O)NC(Cc1cn(CCCC[C@H](NC(C)=O)C(=O)NCC(=O)N[C@@H](CC(C)C)C(=O)N[C@@H](CC(C)C)C(=O)N[C@H](CCCCN)C(=O)N[C@@H](CCCNC(=N)N)C(=O)N[C@H](C(=O)N[C@H](CCCCN)C(=O)N[C@H](C(=O)N[C@@H](CC(C)C)C(=O)N[C@@H](CC(C)C)C(N)=O)[C@@H](C)O)[C@@H](C)CC)nn1)C(=O)NCC(=O)N[C@@H](CC(C)C)C(=O)N[C@@H](CC(C)C)C(=O)N[C@H](CCCCN)C(=O)N[C@@H](CCCNC(=N)N)C(=O)N[C@H](C(=O)N[C@H](CCCCN)C(=O)N[C@H](C(=O)N[C@@H](CC(C)C)C(=O)N[C@@H](CC(C)C)C(N)=O)[C@@H](C)O)[C@@H](C)CC (stereo partly specified)
MIC (Staphylococcus aureus [1]): 16 µM (≈ 43.6 µg/mL) | Ratio (Staphylococcus aureus [2]): 2 - 4 | inhibition (Staphylococcus aureus [3]): Active | inhibition (INH) (Escherichia coli [4]): >50% | MIC (Escherichia coli [5]): 4 µM | MHC10 (Erythrocyte): 128 µM | Activity (Escherichia coli [6]): Active | Activity (Escherichia coli [7]): Dose-dependent effect | MIC (Staphylococcus aureus [8]): 8 µM | hemolysis at 1 h, 256 µM [9]: < 5% | fractional inhibitory concentration index (FICI) (Klebsiella pneumoniae): 0.5625 | MIC (Staphylococcus aureus [10]): 16 µM

CCCCCC(=O)NC(Cc1cn(CCCC[C@H](NC(C)=O)C(=O)NCC(=O)N[C@@H](CC(C)C)C(=O)N[C@@H](CC(C)C)C(=O)N[C@H](CCCCN)C(=O)N[C@@H](CCCNC(=N)N)C(=O)N[C@H](C(=O)N[C@H](CCCCN)C(=O)N[C@H](C(=O)N[C@@H](CC(C)C)C(=O)N[C@@H](CC(C)C)C(N)=O)[C@@H](C)O)[C@@H](C)CC)nn1)C(=O)NCC(=O)N[C@@H](CC(C)C)C(=O)N[C@@H](CC(C)C)C(=O)N[C@H](CCCCN)C(=O)N[C@@H](CCCNC(=N)N)C(=O)N[C@H](C(=O)N[C@H](CCCCN)C(=O)N[C@H](C(=O)N[C@@H](CC(C)C)C(=O)N[C@@H](CC(C)C)C(N)=O)[C@@H](C)O)[C@@H](C)CC (stereo partly specified)
MIC (Staphylococcus aureus [1]): 64 µM (≈ 173 µg/mL) | MIC (Escherichia coli [11]): 16 µM | Ratio (Staphylococcus aureus [2]): 2 - 4 | MIC (Staphylococcus aureus [12]): 64 µM | inhibition (Staphylococcus aureus [3]): Active | inhibition (INH) (Escherichia coli [4]): >50% | viability at 1 h, 32 µM [13]: > 80% | MHC10 (Erythrocyte): > 256 µM | Activity (Escherichia coli [6]): Active | MIC (Escherichia coli [14]): 8 µM | Activity (Escherichia coli [7]): Dose-dependent effect | hemolysis at 1 h, 256 µM [9]: < 5% | MIC (Escherichia coli [15]): 4 µM | MIC (Escherichia coli [16]): 16 µM | fractional inhibitory concentration index (FICI) (Klebsiella pneumoniae): 0.5625 | MIC (Escherichia coli [17]): 32 µM | MIC (Escherichia coli [18]): 16 µM

CCCCCCCC(=O)NCC(=O)N[C@@H](CC(C)C)C(=O)N[C@@H](CC(C)C)C(=O)N[C@H](CCCCN)C(=O)N[C@@H](CCCNC(=N)N)C(=O)N[C@H](C(=O)N[C@H](CCCCN)C(=O)N[C@H](C(=O)N[C@@H](CC(C)C)C(=O)N[C@@H](CC(C)C)C(N)=O)[C@@H](C)O)[C@@H](C)CC
MIC (Staphylococcus aureus [1]): 64 µM (≈ 81.9 µg/mL) | MIC (Staphylococcus aureus [19]): 128 µM | Ratio (Staphylococcus aureus [2]): 2 - 4 | MHC10 (Erythrocyte): > 256 µM | MIC (Escherichia coli [20]): 64 µM | Activity (Escherichia coli [6]): Active | Activity (Escherichia coli [7]): Dose-dependent effect | viability at 1 h, 64 µM [21]: > 80% | inhibition (Escherichia coli [22]): Active | MIC (Escherichia coli [23]): 32 µM | fractional inhibitory concentration index (FICI) (Klebsiella pneumoniae): 0.0625 | inhibition (Staphylococcus aureus [24]): Active
